In patent US9695219B2, “Polypeptide having antibacterial activity and angiogenesis-inducing activity and wound-healing drug containing said polypeptide” (priority 2009, dated 2017):
Values after ≈ are worked out from the molar mass of the structure shown. Where a SMILES comes first, the peptide text is derived from it. Where no end group is shown, it is not given here. [ ]: non-standard residue; d: D form.

Columns and labels:
[1] = system: Penicillium glabrum (Penicillium frequentans); type: cell-based; details: 37° C. for 20 hours; tested twice, first/second value where not matched
Method: (§1) Further, with respect to not only the above-described strains but also various other strains, the “minimum inhibitory concentration (MIC)” was measured as follows. MIC is the lowest concentration of an agent that may inhibit the growth of a bacterium. MIC is used as a parameter for the efficacy of an antibacterial agent, for the strength of bacterial sensitivity, or the like. The bacteria can grow (proliferate) when the concentration is not higher than MIC, and cannot grow when the concentration is higher than MIC. Its measurement is carried out according to a method defined as a standard method by Japanese Society of Chemotherapy or CLINICAL AND LABORATORY […] (CLSI), but, in this Example, its measurement was carried out by a broth microdilution method in accordance with “M100-S17/M7-A7” (Performance Standards for Antimicrobial Susceptibility Testing; Seventeenth Informational Supplement, Vol. 27 No. 1) published by CLSI on January, 2007. That is, sensitivity test of agents was carried out using a microtiter plate or test tubes.
(§2) The bacteria were cultured in liquid media for 4 to 6 hours, and thereafter absorbances at A600 were measured. Bacterial suspensions were diluted with Mueller-Hinton broth (MHB) according to McFarland #0.5. Each strain was added so as to attain about 10^5 CFU/ml (final concentration). Each peptide was prepared to an optional concentration, and the solutions were serially diluted from the concentration. The polypeptide at each concentration stage was added to a microplate or test tubes, and the bacterial suspension was added thereto. Chloramphenicol, amphotericin B, ciprofloxacin, meropenem (MEPM), ciprofloxacin (CPFX), tobramycin (TOB) and oxacillin (OX) were used as positive controls. The plate was incubated at 37° C. for 20 hours, and the lowest concentration where bacterial growth was inhibited was regarded as the minimum inhibitory concentration.

Alternaria alternata = type: cell-based; details: 37° C. for 20 hours; tested twice, first/second value where not matched
Method: as §1, §2

Fusarium solani = type: cell-based; details: 37° C. for 20 hours; tested twice, first/second value where not matched
Method: as §1, §2

Trichophyton rubrum = type: cell-based; details: 37° C. for 20 hours; tested twice, first/second value where not matched
Method: as §1, §2

Candida krusei = type: cell-based; details: 37° C. for 20 hours; tested twice, first/second value where not matched
Method: as §1, §2

[2] = system: Trichophyton mentagrophytes; type: cell-based; details: 37° C. for 20 hours; tested twice, first/second value where not matched
Method: as §1, §2

MSSA (clinical strain 2) = assay: microbe, parasite or virus in culture; type: cell-based, Staphylococcus aureus; details: Staphylococcus aureus, MSSA; 37° C. for 20 hours; tested twice, first/second value where not matched
Method: as §1, §2

MRSA (clinical strain 2) = assay: microbe, parasite or virus in culture; type: cell-based, Staphylococcus aureus; details: Staphylococcus aureus, MRSA; 37° C. for 20 hours; tested twice, first/second value where not matched
Method: as §1, §2

MSSA (clinical strain 1) = assay: microbe, parasite or virus in culture; type: cell-based, Staphylococcus aureus; details: 37° C. for 20 hours; tested twice, first/second value where not matched
Method: as §1, §2

Staphylococcus aureus = assay: microbe, parasite or virus in culture; type: cell-based; details: 37° C. for 20 hours, tested twice, first/second value where not matched
Method: as §1, §2

MRSA (clinical strain 1) = assay: microbe, parasite or virus in culture; type: cell-based; details: Staphylococcus aureus, 37° C. for 20 hours, tested twice, first/second value where not matched
Method: as §1, §2

[3] = system: Staphylococcus epidermidis; assay: MIC measurement, broth microdilution; type: cell-based; details: 37° C. for 20 hours, tested twice, first/second value where not matched
Method: as §1, §2

[4] = system: Pseudomonas aeruginosa (clinical strain 1); assay: microbe, parasite or virus in culture; type: cell-based; details: 37° C. for 20 hours; tested twice, first/second value where not matched
[5] = system: Pseudomonas aeruginosa (clinical strain 12); assay: MIC measurement, broth microdilution; type: cell-based; details: 37° C. for 20 hours; tested twice, first/second value where not matched
[6] = system: Pseudomonas aeruginosa (clinical strain 6); assay: MIC measurement, broth microdilution; type: cell-based; details: 37° C. for 20 hours; tested twice, first/second value where not matched
[7] = system: Pseudomonas aeruginosa (clinical strain 8); assay: MIC measurement, broth microdilution; type: cell-based; details: 37° C. for 20 hours; tested twice, first/second value where not matched
Fusobacterium nucleatum = assay: microbe, parasite or virus in culture; type: cell-based; details: 37° C. for 20 hours; tested twice, first/second value where not matched
Method: as §1, §2

Clostridium ramosum = assay: microbe, parasite or virus in culture; type: cell-based; details: 37° C. for 20 hours; tested twice, first/second value where not matched
Method: as §1, §2

Escherichia coli = assay: MIC measurement, broth microdilution; type: cell-based; details: 37° C. for 20 hours; tested twice, first/second value where not matched
Method: as §1, §2

Acinetobacter baumanni = type: cell-based; details: 37° C. for 20 hours; tested twice, first/second value where not matched
Method: as §1, §2

Pseudomonas aeruginosa = type: cell-based; details: 37° C. for 20 hours; tested twice, first/second value where not matched
Method: as §1, §2

[8] = system: Pseudomonas aeruginosa (clinical strain 9); assay: MIC measurement, broth microdilution; type: cell-based; details: 37° C. for 20 hours; tested twice, first/second value where not matched
[9] = system: Normal human dermal fibroblasts (NHDFs); type: cell-based
Method: Next, the effect of these polypeptides on the growth of human umbilical vein endothelial cells (HUVECs) was studied. A cell growth activity of the polypeptides was examined using Cell Counting Kit (WST-1) available from Dojindo Laboratories. As a negative control (Control), polypeptide-free group was used. Cells (human umbilical vein endothelial cells: HUVECs) were plated in a 96-well plate (0.5×10^4 cells/well/100 μL, serum 1%). About 3 hours after plating the cells, the polypeptides (1, 3, 10, 30 or 100 μg/ml) and FGF (100 ng/ml) as a positive control were individually added thereto in an amount of 100 μL. To the unstimulated group, only a medium was added in an amount of 100 μL. The plate was left to stand in a CO2 incubator for about 48 hours. Thereafter, WST-1 reagent was added to each well in an amount of 20 μL, and then the plate was left to stand in a CO2 incubator for about 2 hours. Absorbances at wavelengths of 450 nm and 620 nm were measured using Wallac 1420 ARVOsx (Program: WST-1). A value of O.D.450-O.D.620 was calculated for each measurement. […] The cell growth activity was evaluated on the basis of the ratio of Net O.D.450 of polypeptide-containing groups relative to Net O.D.450 of the unstimulated group.
Then, the effect on the growth of normal human dermal fibroblasts (NHDFs) was also studied by the same method as described above.

[10] = Stability in rat serum (HPLC); type: in vitro ADME; details: 37° C.
Method: (§3) The stability of the polypeptides in serum was evaluated. In human serum (purchased from KAC Co., Ltd.), or in rat serum obtained by collecting blood from a rat, then leaving the collected blood to stand at room temperature followed by centrifugation, each of the peptides was dissolved so as to attain a final concentration of 500 μg/mL, and the obtained solutions were left to stand at 37° C. After leaving to stand for 3 min or 10 min, these solutions were subjected to HPLC chromatogram analysis to detect peaks of the decomposition products, and calculate the ratio of the concentration of the peptides which remained in the solutions relative to the starting concentration. In addition, the half-lives of the peptides in serum were also calculated.

[11] = Stability in human serum (HPLC); type: in vitro ADME; details: 37° C.
Method: as §3

[12] = Antibacterial activity, ATP assay (BacTiter-Glo); type: cell-based, Enterobacter aerogenes; details: Table 7, mean values; peptides 10 μg/mL, TOB 4.0, OX 4.0, MEPM 0.5 μg/mL; 37° C. 3 hours; relative to negative control; read-out: Viability, Enterobacteria (2)
Method: The antibacterial activity of each of SR-08 and SR-07 polypeptides was measured using an ATP assay method. That is, using BacTiter-Glo Microbial Cell Viability Assay kit available from PROMEGA, the antibacterial activity of the peptides was evaluated from the viability of bacteria. In other words, ATP amount in viable bacteria in cases where the concentration of the peptides was 10 μg/mL was measured using a microtiter plate or test tubes. As controls, tobramycin (TOB), oxacillin (OX) and meropenem (MEPM) were used at the concentrations as respectively shown in Table 6 below.
With respect to the strains, Escherichia coli: ATCC 25922 (Escherichia coli ATCC 25922), Pseudomonas aeruginosa: ATCC 27853 (Pseudomonas aeruginosa ATCC 27853), Staphylococcus aureus: ATCC29213 (Staphylococcus aureus ATCC29213), Klebsiella pneumoniae: JCM 1662 (Klebsiella pneumoniae JCM 1662), enterobacteria (1): JCM 1232 (Enterobacter cloacae JCM 1232), and enterobacteria (2): JCM 1235 (Enterobacter aerogenes JCM 1235), were used.
The bacteria were cultured in media for 3 to 4 hours, and thereafter absorbances at A600 were measured. Bacterial suspensions were diluted with Mueller-Hinton broth (MHB) according to McFarland #0.5. Each strain was added so as to attain about 0.5-1×10^5 CFU/mL (final concentration) in terms of Escherichia coli. Each peptide was prepared and added to a microplate or test tubes so as to attain a final concentration of 10 μg/mL, and the bacterial suspension was added thereto. The plate was incubated at 37° C. for 3 hours, and the amount of ATP in the culture media was measured. Relative values were calculated by comparison with the negative control, and these values were regarded as the viability.

Molecule: C[C@@H]1[C@H](O)[C@@H](C)/C=C/C=C/C=C/C=C/C=C/C=C/C=C/[C@H](O[C@@H]2O[C@H](C)[C@@H](O)[C@H](N)[C@@H]2O)C[C@@H]2O[C@](O)(C[C@@H](O)C[C@@H](O)[C@H](O)CC[C@@H](O)C[C@@H](O)CC(=O)O[C@H]1C)C[C@H](O)[C@H]2C(=O)O [Amphotericin B, amphotericin B]
- MIC, Penicillium glabrum (Penicillium frequentans) [1]: 0.125 µg/mL (≈ 0.135 µM)
- MIC, Alternaria alternata (Alternaria alternata): 1 µg/mL (≈ 1.08 µM)
- MIC, Fusarium solani (Fusarium solani): 1 µg/mL (≈ 1.08 µM)
- MIC, Trichophyton rubrum (Trichophyton rubrum): 0.25 µg/mL (≈ 0.271 µM)
- MIC, Candida krusei (Candida krusei): 2 µg/mL (≈ 2.16 µM)
- MIC, Trichophyton mentagrophytes [2]: 0.125 µg/mL (≈ 0.135 µM)

Molecule: Cc1onc(-c2ccccc2)c1C(=O)N[C@@H]1C(=O)N2[C@@H]1SC(C)(C)[C@@H]2C(=O)O [OX, oxacillin]
- MIC (MSSA (clinical strain 2)): < 2 µg/mL
- MIC (MRSA (clinical strain 2)): > 8 µg/mL
- MIC, MSSA (clinical strain 1) (MSSA (clinical strain 1)): 3/8
- MIC (Staphylococcus aureus): 0.15 to 0.5 µg/mL (≈ 0.374 to 1.25 µM)
- MIC (MRSA (clinical strain 1)): < 4 µg/mL
- MIC ([3]; Staphylococcus epidermidis): 0.15 to 0.5 µg/mL (≈ 0.374 to 1.25 µM)

Molecule: KNLRRIIRKIIHIIKKYG [AP00196]
- MIC, Pseudomonas aeruginosa (clinical strain 1) [4]: 16/64
- MIC, MSSA (clinical strain 1) (MSSA (clinical strain 1)): 16/32
- MIC, Pseudomonas aeruginosa (clinical strain 12) [5]: 16/32
- MIC, Pseudomonas aeruginosa (clinical strain 6) [6]: 32/64
- MIC, Pseudomonas aeruginosa (clinical strain 8) [7]: 32/64
- MIC, Fusobacterium nucleatum (Fusobacterium nucleatum): 2/4
- MIC, Clostridium ramosum (Clostridium ramosum): 32/64
- MIC, Escherichia coli (Escherichia coli): 8/16
- MIC, Staphylococcus epidermidis [3]: 8/16
- MIC, Acinetobacter baumanni (Acinetobacter baumanni): 4/8
- MIC, Fusarium solani (Fusarium solani): 4/8
- MIC, Pseudomonas aeruginosa (Pseudomonas aeruginosa): 16/32
- MIC, Pseudomonas aeruginosa (clinical strain 9) [8]: 32/128

Molecule: CC[C@H](C)[C@H](NC(=O)[C@H](CC(C)C)NC(=O)[C@H](CCCCN)NC(=O)[C@H](CC(C)C)NC(=O)[C@@H](N)CCSC)C(=O)N[C@@H](Cc1ccccc1)C(=O)N[C@@H](CC(C)C)C(=O)N[C@@H](Cc1c[nH]cn1)C(=O)N[C@@H](CCCNC(=N)N)C(=O)N[C@@H](CC(C)C)C(=O)N[C@@H](CCCCN)C(=O)N[C@@H](CCCNC(=N)N)C(=O)N[C@@H](CCSC)C(=O)N[C@@H](CCCNC(=N)N)C(=O)N[C@@H](CCCCN)C(=O)N[C@@H](CCCNC(=N)N)C(=O)N[C@@H](CC(C)C)C(=O)N[C@H](CCCCN)C(=O)N[C@@H](CCCNC(=N)N)C(=O)N[C@@H](CCCCN)C(=O)O [SR-07] (H-MLKLIFLHRLKRMRKRL[dK]RK-OH; N-terminus and C-terminus assumed)
- Concentration above which the polypeptide tended to exhibit toxicity, NHDFs (FIG. 4) [9]: > 30 µg/mL
- Ratio of peptide remaining relative to the starting concentration, rat serum, 0 min ([10]; 500 μg/mL, 0 min): 100
- remaining at 0.05 h, 500 μg/mL ([10]; rat, rat serum, 3 min, read-out: Ratio of peptide remaining relative to the starting concentration, rat serum, 3 min): 51%
- remaining at 10 min, 500 μg/mL ([10]; rat, rat serum, 10 min, read-out: Ratio of peptide remaining relative to the starting concentration, rat serum, 10 min): 16.5%
- half-life ([10]; rat, serum, 500 μg/mL): 4 min
- Ratio of peptide remaining relative to the starting concentration, human serum, 0 min ([11]; 500 μg/mL, 0 min): 100
- remaining at 0.05 h, 500 μg/mL ([11]; human, human serum, 3 min, read-out: Ratio of peptide remaining relative to the starting concentration, human serum, 3 min): 98%
- remaining at 10 min, 500 μg/mL ([11]; human, human serum, 10 min, read-out: Ratio of peptide remaining relative to the starting concentration, human serum, 10 min): 64.3%
- half-life ([11]; human, serum, 500 μg/mL): 15 min
- viability [12]: 16.5%
